Assay results from patent publication US20200363414A1, “Neoantigen Identification for T-Cell Therapy” (Gritstone Oncology, Inc., priority 2018, published 2020).
Where no end group is shown, it is not given here.

Tested on: neoantigen-reactive T-cells (patient PBMCs)
Assay: IFN-gamma ELISpot of in vitro expanded (IVS) NSCLC patient PBMCs
Type: cell-based, human
Conditions: IFN-gamma ELISpot after 14 day IVS culture of NSCLC patient PBMCs
Experimental: To focus the analysis on likely CD8 responses, the prioritized peptides were synthesized as 8-11 mer minimal epitopes (Methods), and then peripheral blood mononuclear cells (PBMCs) were cultured with the synthesized peptides in short in vitro stimulation (IVS) cultures to expand neoantigen-reactive T-cells (Supplementary Table 3). After two weeks the presence of antigen-specific T-cells was assessed using IFN-gamma ELISpot against the prioritized neoepitopes. In seven patients for whom sufficient PBMCs were available, separate experiments were also performed to fully or partially deconvolve the specific antigens recognized.
For each patient, predicted neoantigens were combined into 2 pools of 10 peptides each according to model ranking and any sequence homologies (homologous peptides were separated into different pools). Then, for each patient, the in vitro expanded PBMCs for the patient were stimulated with the 2 patient-specific neoantigen peptide pools in IFN-gamma ELISpot. Data in FIG. 15A are presented as spot forming units (SFU) per 105 plated cells with background (corresponding DMSO negative controls) subtracted.
Cells were seeded at 2×10^6 cells/well and fed every 2-3 days by replacing 2/3 of the culture media.
Detection of IFNγ-producing T-cells was performed by ELISpot assay^142. Briefly, PBMCs (ex vivo or post in vitro expansion) were harvested, washed in serum free RPMI (VWR International) and cultured in the presence of controls or cognate peptides in OpTmizer T-cell Expansion Basal Medium (ex vivo) or in ImmunoCult™-XF T-cell Expansion Medium (expanded cultures) in ELISpot Multiscreen plates (EMD Millipore) coated with anti-human IFNγ capture antibody (Mabtech, Cincinatti, Ohio, USA). Following 18 h incubation in a 5% CO2, 37° C., humidified incubator, cells were removed from the plate and membrane-bound IFNγ was detected using anti-human IFNγ detection antibody (Mabtech), Vectastain Avidin peroxidase complex (Vector Labs, Burlingame, Calif., USA) and AEC Substrate (BD Biosciences, San Jose, Calif., USA). […] Data are presented as spot forming units (SFU) per plated number of cells.

Sequence	T-cell recognition of individual neoantigen peptide
EVADAATLTM	peptide-specific T-cell response was deconvolved
GTKKDVDVLK	recognized by CD8 T-cells
DENITTIQF	peptide-specific T-cell response was deconvolved
QDVSVQVER	peptide-specific T-cell response was deconvolved
DTVEYPYTSF	peptide-specific T-cell response was deconvolved
